We go through 18 molecules from ChEMBL document CHEMBL1146726, “Linker-modified quinoline derivatives targeting HIV-1 integrase: synthesis and biological activity” (Bioorg Med Chem Lett, 2004).

One assay has as its system CCRF-CEM. In words: Concentration that inhibits 50% of viral particle production in de novo infection assay of CEM cells (ex vivo); Not reached. The class given is functional, cell-based, Homo sapiens.
The subject of assay [1] is Human immunodeficiency virus 1. In words: Inhibition of particle production in de novo infection assay of HIV infected CEM cells. Format: functional, organism-based. The note with it: Human immunodeficiency virus 1, CCRF-CEM.
Assay [2] has as its target Human immunodeficiency virus type 1 integrase (Human immunodeficiency virus 1, UniProt Q7ZJM1). In words: In vitro inhibition of recombinant integrase activity in a standard 3'-processing assay.

Human immunodeficiency virus type 1 integrase, sequence (Q7ZJM1 whole entry): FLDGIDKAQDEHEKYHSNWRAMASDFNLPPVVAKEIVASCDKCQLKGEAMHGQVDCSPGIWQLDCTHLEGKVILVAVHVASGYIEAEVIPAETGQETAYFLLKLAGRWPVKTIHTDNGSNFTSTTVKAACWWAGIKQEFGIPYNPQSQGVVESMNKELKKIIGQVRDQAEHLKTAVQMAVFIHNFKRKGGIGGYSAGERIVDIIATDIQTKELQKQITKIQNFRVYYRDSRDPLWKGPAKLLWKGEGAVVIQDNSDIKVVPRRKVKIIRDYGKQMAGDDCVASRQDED

Consider `O=C(O)c1ccc2ccc(CCc3ccc(O)c(O)c3)nc2c1O`, for which the IC50 (commonly the point on the concentration scale where inhibition reaches its midpoint) in the assay with CCRF-CEM is “Not reached”.

Turning to `COc1ccc(CNC(=O)Nc2ccc3ccc(C(=O)O)c(O)c3n2)cc1`, the IC50 in assay [1] and in assay [2] was greater than 100 µM throughout.

For the molecule `O=C(NNc1ccc([N+](=O)[O-])cc1[N+](=O)[O-])c1ccc2ccc(C(=O)O)c(O)c2n1`, the values for the IC50 in assay [1] and in assay [2] were greater than 100 µM and 3 µM, respectively.

On to `O=C(Nc1ccc(O)c(O)c1)c1ccc2ccc(C(=O)O)c(O)c2n1`, for which the IC50 in assay [1] came to 30 µM; in assay [2], 0.9 µM.

For `O=C(O)c1ccc2ccc(/C=C/c3ccc(O)c(O)c3)nc2c1O`, the IC50 in assay [1] stood at 1 µM.

In the case of `O=C(O)c1ccc2ccc(/C=C/c3cc(O)cc(O)c3)nc2c1O`, the IC50 in assay [1] was greater than 100 µM.

Take `O=C(/C=C(\O)c1ccccc1)c1ccc2ccc(C(=O)O)c(O)c2n1`: the IC50 in assay [1] is greater than 100 µM; in assay [2], 30 µM.

For `COc1cc(CNC(=O)c2ccc3ccc(C(=O)O)c(O)c3n2)cc(O)c1O`, the IC50 is 25 µM in assay [1] and 6.5 µM in assay [2].

Take `O=C(NCc1ccc(O)c(O)c1)c1ccc2ccc(C(=O)O)c(O)c2n1`: the IC50 in assay [1] came out at 2 µM; in assay [2], 5 µM.

Turning to `O=C(NCc1ccc(O)c(O)c1)Nc1ccc2ccc(C(=O)O)c(O)c2n1`, the IC50 was 55 µM in assay [1] and greater than 100 µM in assay [2].

As for `O=C(NNc1ccccc1)c1ccc2ccc(C(=O)O)c(O)c2n1`, the values for the IC50 in assay [1] and in assay [2] were 45 µM and greater than 100 µM, respectively.

`O=C(NCc1ccc(O)cc1O)c1ccc2ccc(C(=O)O)c(O)c2n1`: the figures for the IC50 in assay [1] and in assay [2] were 10 µM and 5 µM, respectively.

With `O=C(Nc1ccc(O)c(O)c1)Nc1ccc2ccc(C(=O)O)c(O)c2n1`, the IC50 in assay [1] and in assay [2] was greater than 100 µM throughout.

In the case of `O=C(Nc1ccc2ccc(C(=O)O)c(O)c2n1)c1ccccc1`, the IC50 in assay [1] and in assay [2] was greater than 100 µM each time.

On to `O=C(NCc1cccc(O)c1O)c1ccc2ccc(C(=O)O)c(O)c2n1`, for which the IC50 in assay [1] worked out at 40 µM; in assay [2] it was 5 µM.

For `O=C(NCc1ccc(O)c(O)c1O)c1ccc2ccc(C(=O)O)c(O)c2n1`, the IC50 in assay [1] is 4 µM; in assay [2] it was 1.5 µM.

In the case of `O=C(NCc1cc(O)cc(O)c1)c1ccc2ccc(C(=O)O)c(O)c2n1`, the IC50 in assay [1] and in assay [2] was greater than 100 µM each time.

As to `COc1cc(NC(=O)c2ccc3ccc(C(=O)O)c(O)c3n2)cc(O)c1O`, the IC50 was 2 µM in assay [1] and 6.5 µM in assay [2].
